Laboratory results from patent US10640534B2 (Agios Pharmaceuticals, Inc., priority 2012, dated 2020).

Test system: U87MG cells
Experiment: Cellular assay, inhibition of 2-HG production in U87MG cells
Assay type: cell-based
Settings: Homo sapiens, U-87 MG, 48 h
Procedure, shortened: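 HT1080 or U87MG cells (U87MG kept with 500 ug/mL G418) seeded at 5000 cells/well and treated with compound at 0.2% final DMSO. Incubated 48 h at 37 °C. 2-HG inhibition determined by LC-MS. Viability read by CellTiter-Glo luminescence at 72 h post-dose.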

Row | Compound | IC50 [nM]
1 | N#Cc1ccnc(N2C(=O)CNC[C@H]2C(=O)N(c2cc(F)cc(F)c2)[C@H](C(=O)NC2CC(F)(F)C2)c2ccccc2Cl)c1 [Compound 100, (S)—N—((S)-1-(2-Chlorophenyl)-2-((3,3-difluorocyclobutyl)amino)-2-oxoethyl)-1-(4-cyanopyridin-2-yl)-N-(3,5-difluorophenyl)-6-oxopiperazine-2-carboxamide] | < 100
2 | CS(=O)(=O)c1cc(F)cc(N(C(=O)[C@@H]2CCC(=O)N2c2nccc(C#N)n2)[C@H](C(=O)NC2CC(F)(F)C2)c2ccccc2Cl)c1 [Compound 109, (S)—N—((S)-1-(2-Chlorophenyl)-2-((3,3-difluorocyclobutyl)amino)-2-oxoethyl)-1-(4-cyanopyrimidin-2-yl)-N-(3-fluoro-5-(methylsulfonyl)phenyl)-5-oxopyrrolidine-2-carboxamide] | 100 to 500
3 | N#Cc1ccnc(N2C(=O)CC[C@H]2C(=O)N(c2cc(F)cc(F)c2)[C@H](C(=O)NC2CC(F)(F)C2)c2ncccc2Cl)c1 [Compound 198, (S)—N—((S)-1-(3-Chloropyridin-2-yl)-2-(3,3-difluorocyclobutylamino)-2-oxoethyl)-1-(4-cyanopyridin-2-yl)-N-(3,5-difluorophenyl)-5-oxopyrrolidine-2-carboxamide] | < 100
4 | N#Cc1ccnc(N2C(=O)[C@H](O)C[C@H]2C(=O)N(c2cc(F)cc(F)c2)[C@@H](C(=O)NC2CCC(F)(F)CC2)c2ccccc2Cl)n1 [Compound 126, (2S,4R)—N—((R)-1-(2-Chlorophenyl)-2-(4,4-difluorocyclohexylamino)-2-oxoethyl)-1-(4-cyanopyrimidin-2-yl)-N-(3,5-difluorophenyl)-4-hydroxy-5-oxopyrrolidine-2-carboxamide] | 100 to 500
5 | CCOC(=O)CN1C[C@@H](C(=O)N(c2cccc(F)c2)C(C(=O)NC2CC(F)(F)C2)c2ccccc2Cl)N(c2nccc(C#N)n2)C1=O (stereo partly drawn) [Compound 111, Ethyl 2-((4S)-4-((1-(2-chlorophenyl)-2-((3,3-difluorocyclobutyl)amino)-2-oxoethyl)(3-fluorophenyl)carbamoyl)-3-(4-cyanopyrimidin-2-yl)-2-oxoimidazolidin-1-yl)acetate] | < 100
6 | O=C(NC1CC(F)(F)C1)[C@H](c1ccccc1Cl)N(C(=O)[C@@H]1CCC(=O)N1c1nccs1)c1cccc(F)c1 [Compound 14] | 100 to 500
7 | N#Cc1cc(F)cc(N(C(=O)[C@@H]2C[C@@H](O)C(=O)N2c2cc(C#N)ccn2)C(C(=O)NC2CC(F)(F)C2)c2ccccc2Cl)c1 (stereo partly drawn) [Compound 169, (2S,4R)—N-(1-(2-Chlorophenyl)-2-(3,3-difluorocyclobutylamino)-2-oxoethyl)-N-(3-cyano-5-fluorophenyl)-1-(4-cyanopyridin-2-yl)-4-hydroxy-5-oxopyrrolidine-2-carboxamide] | < 100
8 | N#Cc1ccnc(N2C(=O)CC[C@H]2C(=O)N(c2cccc(F)c2)[C@H](C(=O)NC2CCC(F)(F)CC2)c2ccccc2Cl)c1 [Compound 53] | < 100
9 | COc1cccc(N(C(=O)[C@@H]2CCC(=O)N2c2nccc(C#N)n2)[C@H](C(=O)NC2CC(F)(F)C2)c2ccccc2Cl)c1 [Compound 164, (S)—N—((S)-1-(2-Chlorophenyl)-2-(3,3-difluorocyclobutyl-amino)-2-oxoethyl)-1-(4-cyanopyrimidin-2-yl)-N-(3-methoxyphenyl)-5-oxopyrrolidine-2-carboxamide] | < 100
10 | N#Cc1ccnc(N2C(=O)CN(CCO)C[C@H]2C(=O)N(c2cc(F)cc(F)c2)[C@H](C(=O)NC2CC(F)(F)C2)c2ccccc2Cl)c1 [Compound 107, (S)—N—((S)-1-(2-chlorophenyl)-2-((3,3-difluorocyclobutyl)amino)-2-oxoethyl)-1-(4-cyanopyridin-2-yl)-N-(3,5-difluorophenyl)-4-(2-hydroxyethyl)-6-oxopiperazine-2-carboxamide] | < 100
11 | Cc1ccc(N2C(=O)CC[C@H]2C(=O)N(c2cccc(F)c2)[C@H](C(=O)NC2CC(F)(F)C2)c2ccccc2Cl)nc1 [Compound 21] | 100 to 500
12 | O=C(NC1CCCCC1)[C@H](c1ccccc1Cl)N(C(=O)[C@@H]1CCC(=O)N1c1ncccn1)c1cccc(F)c1 [Compound 7] | < 100
13 | N#Cc1ccnc(N2C(=O)OC[C@H]2C(=O)N(c2cncc(F)c2)[C@H](C(=O)NC2CCC(F)(F)CC2)c2ccccc2Cl)c1 [Compound 132, (S)—N—((S)-1-(2-Chlorophenyl)-2-((4,4-difluorocyclohexyl)amino)-2-oxoethyl)-3-(4-cyanopyridin-2-yl)-N-(5-fluoropyridin-3-yl)-2-oxooxazolidine-4-carboxamide] | < 100
14 | N#Cc1ccnc(N2C(=O)[C@@H](O)C[C@H]2C(=O)N(c2cccc(F)c2)[C@H](C(=O)NC2CC(F)(F)C2)c2ccccc2Cl)n1 [Compound 119, (2S,4S)—N—((S)-1-(2-Chlorophenyl)-2-(3,3-difluorocyclobutylamino)-2-oxoethyl)-1-(4-cyanopyrimidin-2-yl)-N-(3-fluorophenyl)-4-hydroxy-5-oxopyrrolidine-2-carboxamide] | 100 to 500
15 | N#Cc1ccnc(N2C(=O)CC[C@H]2C(=O)N(c2cccc(CO)c2)[C@H](C(=O)NC2CC(F)(F)C2)c2ccccc2Cl)c1 [Compound 131, (S)—N—((S)-1-(2-Chlorophenyl)-2-(3,3-difluorocyclobutylamino)-2-oxoethyl)-1-(4-cyanopyridin-2-yl)-N-(3-(hydroxymethyl)phenyl)-5-oxopyrrolidine-2-carboxamide] | < 100
16 | N#Cc1ccnc(N2C(=O)OC[C@H]2C(=O)N(c2cccc(F)c2)[C@H](C(=O)NC2CCC(F)(F)CC2)c2ccccc2Cl)c1 [Compound 78, (S)—N—((S)-1-(2-Chlorophenyl)-2-((4,4-difluorocyclohexyl)amino)-2-oxoethyl)-3-(4-cyano-pyridin-2-yl)-N-(3-fluorophenyl)-2-oxooxazolidine-4-carboxamide] | < 100
17 | N#Cc1ccnc(N2C(=O)CCC[C@H]2C(=O)N(c2cccc(F)c2)[C@H](C(=O)NC2CC(F)(F)C2)c2ccccc2Cl)c1 [Compound 55, (S)—N—((S)-1-(2-Chlorophenyl)-2-(3,3-difluorocyclobutylamino)-2-oxoethyl)-1-(4-cyanopyridin-2-yl)-N-(3-fluorophenyl)-6-oxopiperidine-2-carboxamide] | < 100
18 | N#Cc1ccnc(N2C(=O)CC[C@H]2C(=O)N(c2cncc(F)c2)C(C(=O)NC2CC(F)(F)C2)c2ccccc2Cl)c1 (stereo partly drawn) [Compound 91] | < 100
19 | N#Cc1cc(C#N)cc(N(C(=O)[C@@H]2CCC(=O)N2c2cc(C#N)ccn2)C(C(=O)NC2CC(F)(F)C2)c2ccccc2Cl)c1 (stereo partly drawn) [Compound 191, (2S)—N-(1-(2-Chlorophenyl)-2-((3,3-difluorocyclobutyl)amino)-2-oxoethyl)-1-(4-cyanopyridin-2-yl)-N-(3,5-dicyanophenyl)-5-oxopyrrolidine-2-carboxamide] | < 100
20 | N#Cc1ccnc(N2C(=O)CC[C@H]2C(=O)N(c2cccc(F)c2)[C@H](C(=O)NC2CCC(F)(F)CC2)c2ccccc2Cl)c1F [Compound 83, (S)—N—((S)-1-(2-Chlorophenyl)-2-((4,4-difluorocyclohexyl)amino)-2-oxoethyl)-1-(4-cyano-3-fluoropyridin-2-yl)-N-(3-fluorophenyl)-5-oxopyrrolidine-2-carboxamide] | < 100
21 | O=C(NC1CC(F)(F)C1)[C@H](c1ccccc1Cl)N(C(=O)[C@@H]1CCC(=O)N1c1cc(Cl)ccn1)c1cccc(F)c1 [Compound 33] | 100 to 500
